Experiments:
HPV18 VLPs = HPV18 VLPs (Human papillomavirus type 18, UniProt P06794); format: physicochemical, HPV; details: data not shown
Description: Differential Scanning Calorimetry (DSC) was used to evaluate the impact of preservatives on protein structural and thermal stability. The analysis for antigen thermal stability was determined using a VP-Capillary DSC Platform (MicroCal, LLC, Northampton, Mass.). A detailed description of the conditions utilized is disclosed in Ionescu et al. (2007) (J. Pharm. Sci. 97(4): 1414-1426 (2008)).
The DSC evaluation was carried out in the presence of various preservatives with varied concentrations.

HPV Type 18 VLPs = HPV Type 18 VLPs (Human papillomavirus type 18, UniProt P06794); format: binding; details: HPV18 VLPs, 2 months at 2-8° C., n=2, Biacore
Description: The in vitro antigenicity of HPV vaccine formulations comprising HPV18 VLPs and different preservatives was evaluated using a neutralization antibody binding assay (Biacore, Surface Plasmon Resonance). The analysis for antigen bioactivity was determined using the Biacore 2000 (VPR 332) and Biacore 3000 (VPR 696) (Biacore, Inc., Piscataway, N.J.).
Samples were incubated for 2 months at 2-8° C. prior to sample treatment by aluminum dissolution, followed by the final Biacore analysis.

[1] = test system: microorganisms (e.g., bacteria and fungi); assay: Anti-microbial effectiveness (AME) test (USP, EP-B, EP-A criteria); format: cell-based; details: initial screening, octavalent HPV formulation with MAA, stored one week at 2-8° C. before test
Description: The effectiveness of various preservatives in candidate HPV vaccine formulations was evaluated using an antimicrobial test (anti-microbial effectiveness (AME) test). AME testing was used to determine the ability of a preservative to reduce or eliminate microbes that may be introduced into the vial following product withdrawal. […] Briefly, the AME test comprises the EPA, EPB and USP criteria, which consist of inoculating 10^5-10^6 CFU/mL microorganisms (e.g., bacteria and fungi) per container at time zero, and evaluating the log reduction over time (Meyer et al., supra).
Thimerosal was also included as a reference.
All samples contained 562.5 mcg/mL MAA, 0.32 M NaCl, 10 mM His, 0.01% polysorbate-80 (PS-80), pH 6.2. Formulations containing chlorobutanol and propylparaben were tested with and without the addition of 120 mcg/mL ISCOMATRIX®.
Preservatives were added to octavalent HPV formulations comprising 8 types of HPV VLPs, as described in EXAMPLE 1, and were stored for one week at 2-8° C. prior to AME testing.
Several HPV vaccine formulations with various dose and combinations of preservatives, in the presence or absence of IMX adjuvant, were tested.
Each type of HPV VLP aqueous bulk was absorbed on MAA separately with a protein-to-adjuvant ratio of 0.71 to form the monovalent vaccines in 0.32 M NaCl, 10 mM Histidine (pH 6.2), 0.01% (w/v) PS-80. […]

Chain of HPV Type 18 VLPs (P06794 whole entry): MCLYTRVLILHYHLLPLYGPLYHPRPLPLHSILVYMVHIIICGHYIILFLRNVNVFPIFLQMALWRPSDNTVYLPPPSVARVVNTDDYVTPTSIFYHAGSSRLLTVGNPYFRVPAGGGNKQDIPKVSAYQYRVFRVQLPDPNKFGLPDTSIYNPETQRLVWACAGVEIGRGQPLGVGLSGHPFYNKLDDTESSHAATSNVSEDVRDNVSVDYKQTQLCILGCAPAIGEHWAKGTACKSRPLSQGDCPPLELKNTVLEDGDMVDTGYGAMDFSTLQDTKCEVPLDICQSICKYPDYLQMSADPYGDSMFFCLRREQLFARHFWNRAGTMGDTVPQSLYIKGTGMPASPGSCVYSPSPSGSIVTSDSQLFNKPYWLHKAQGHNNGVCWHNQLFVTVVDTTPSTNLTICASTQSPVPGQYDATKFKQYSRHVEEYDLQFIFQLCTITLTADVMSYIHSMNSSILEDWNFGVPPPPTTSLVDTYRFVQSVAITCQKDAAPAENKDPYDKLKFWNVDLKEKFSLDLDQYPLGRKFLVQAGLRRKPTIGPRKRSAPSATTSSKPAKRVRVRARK
Chain of HPV18 VLPs (P06794 whole entry): as above

Row | SMILES | impact on the thermal stability of HPV type 18 (DSC) (HPV18 VLPs) | average relative in vitro antigenicity (HPV Type 18 VLPs) [%] | AME test criteria passed (USP, EP-B, EP-A) [1]
1 | C[CH2][Hg][S]c1ccccc1C(=O)[O-].[Na+] [thimerosal] | greatest impact | 80 | 
2 | OCCOc1ccccc1 [2-phenoxyethanol] |  |  | did not pass EP-B or EP-A
